Values quoted from earlier work as cited in patent US20240082296A1, “TREATMENT OF MUSCLE ATROPHY USING DEXTRAN SULFATE” (TX MEDIC AB, priority 2020, published 2024).

Test system: mouse model of muscle atrophy
Settings: after 2 weeks of treatment; cited from earlier work

## recombinant HGF: recombinant hepatocyte growth factor, a naturally occurring neuroprotective and myogenic growth factor
  increase in muscle mass: 18%
